Measurements published in paper PMC5971337, “Development of an Ultra-High Performance Liquid Chromatography Method for Simultaneous Determination of Six Active Compounds in Fructus aurantii and Rat Plasma and Its Application to a Comparative Pharmacokinetic Study in Rats Administered with Different Doses” (Journal of Analytical Methods in Chemistry, 2018).
Read-outs that look alike come from different tables or passages of the source.

Assays:
[1] = Stability of the analytical solution of FA decoction at environmental temperature; assay type: physicochemical; conditions: FA decoction 1.7 g/mL
Procedure: The raw herb (200 g) was immersed in distilled water (1 : 8, w/v) for 0.5 h at room temperature and thereafter was boiled for 0.5 h. The filtrate was collected, and the residue was boiled again in distilled water (1 : 6, w/v) for 0.5 h. The filtrates were mixed together, filtered through a 0.45 µm porous filtration membrane, then farther concentrated in the rotary evaporator to a final concentration equivalent to 1.7 g/mL FA, and stored at −20°C until analyzed. In the experiment, FA decoction (100 µL) was precisely measured, 900 µL methanol was added, then ultrasound was done for 5 min, and it was centrifuged at 15000 rpm (4°C) for 10 min; the supernatant liquor (20 µL) was shifted to a 1.5 mL EP tube, methanol-water (780 µL) was added, and ultrasound was performed, and it was centrifuged at 15000 rpm (4°C) for 10 min again. Finally, 5 µL of the supernatant liquor was injected into the apparatus for detection.
The stability of the analytical solution at environmental temperature was studied by detecting sample solution at 0, 2, 4, 8, 12, and 24 h. The RSD values of peak areas were taken for assessment.

[2] = Pharmacokinetic study in rats after oral administration of FA decoction; assay type: in vivo, Sprague-Dawley rats; conditions: for Cmax / AUC(0-t) / Tmax / MRT last / half-life: male, Sprague-Dawley, rat plasma; for AUC(0-t): last dose day 8, plasma treated with β-glucuronidase; for MRT last: read-out: MRT(0–t); for half-life: read-out: t 1/2z (converted); for AUC(0–t) elevation, 30 g/kg compared with the 15 g/kg group / C max elevation, 30 g/kg compared with the 15 g/kg group: rat, oral FA decoction
Procedure: 16 male Sprague-Dawley (SD) rats weighing 200 ± 20 g were from experimental animal center of Central South University and fostered in an environmentally controlled room (temperature: 22–26°C, humidity: 40–60%, and 12 h dark-light cycle) for 1 week before the experiment. All experimental procedures were implemented strictly according to the guidelines of the Animal Care and Use Committee, Central South University, China. This research was approved by the Animal Ethics Committee of Central South University. Rats were randomly divided into 2 groups (n=8): low-dose group (15 g/kg FA decoction) and high-dose group (30 g/kg FA decoction). The two groups were given by gavage twice a day for 7 days in succession. At the 7th day of medication, the rats were prohibited feeding for about 12 hours without restriction of water. On day 8, the rats were orally administered for the last time at 8 am, and then plasma samples (0.5 mL) were collected from the caudal vein at 5, 10, 20, 30, 60, 90, 240, 360, 480, and 600 min into heparinized vacuum tubes, followed by centrifugation at 3500 rpm (4°C) for 10 min. Then, the plasmas were obtained and immediately stored at −20°C until analysis. During the experiment, the rats were injected intraperitoneally with physiological saline for maintaining fluid balance.
(§1) Standard stock solutions were prepared by dissolving reference standards in methanol to yield concentrations of 198 µg/mL for meranzin hydrate, 128 µg/mL for naringenin, 273 µg/mL for hesperetin, and 4.56 µg/mL for SMZ. All solutions were stored at 4°C. QC samples were prepared at three concentration levels containing meranzin hydrate (6.5, 206, 3300 ng/mL), naringenin (13.9, 222, 3555 ng/mL), and hesperetin (3.7, 29.5, 236 ng/mL). Plasmas (100 µL) were spiked with β-glucuronidase (5 µL) and acetic acid buffer solution (10 µL), subsequently vortexed for 10 seconds, and incubated for 4 h at 37°C. Then, SMZ (50 µL) and methanol (135 µL) were added, ultrasound was done for 10 min, and centrifugation at 12000 rpm (4°C) for 10 min was performed. The supernatant (50 µL) was transferred, distilled water (50 µL) was added, then ultrasound and centrifugation again. At last, the supernatant of 5 µL was injected into UPLC.
The database was set up with the SPSS 17.0 software package from SPSS Inc., Chicago, Illinois (US). Differences between the two groups were analyzed by one-way analysis of variance. A two-tailed P value of <0.05 was considered statistically significant. The DAS 3.2.8 pharmacokinetic program (Chinese Pharmacological Society) was used to process pharmacokinetic parameters.
The validated method was applied to determine the plasma concentrations of meranzin hydrate, naringenin, and hesperetin in rats after oral administration of FA decoction at a dose of 15 g/kg and 30 g/kg body weight. The mean plasma concentration-time profiles of meranzin hydrate, naringenin, and hesperetin are shown in Figure 4, and the estimated pharmacokinetic parameters are illustrated in Table 5. According to DAS software, the optimal metabolism process of the 3 components in rats could be depicted as a two-compartment pharmacokinetic model.

[3] = Stability of QC samples in rat plasma (short-term, freeze-thaw, long-term); assay type: in vitro ADME; conditions: for Short-term stability, Mean ± SD: room temperature for 4 h; for Freeze-thaw stability, Mean ± SD: three freeze (−20°C) and thaw cycles; for Long-term stability, Mean ± SD: −20°C for 20 days
Procedure: as §1
(5) Stability. QC plasma samples of each concentration at low, medium, and high levels were detected. The freeze and thaw stability were investigated after three freeze (−20°C) and thaw (room temperature) cycles on consecutive days. Long-term stability was studied by storing QC samples at −20°C for 20 days. Short-term stability was assessed by analyzing QC samples kept at room temperature for 4 h.

[4] = oral FA decoction 15 g/kg twice a day for 7 days, n=8
[5] = oral FA decoction 30 g/kg twice a day for 7 days, n=8
[6] = high level (spiked 3300.0 / 3555.0 / 236.0 ng/mL)
[7] = low level (spiked 6.5 / 13.9 / 3.7 ng/mL)
[8] = medium level (spiked 206.0 / 222.0 / 29.5 ng/mL)

SMILES	Stability in FA decoction, Content ([1]; 0h)	Stability in FA decoction, Content ([1]; 2h)	Stability in FA decoction, Content ([1]; 4h)	Stability in FA decoction, Content ([1]; 8h)	Stability in FA decoction, Content ([1]; 12h)	Stability in FA decoction, Content ([1]; 24h)	AUC(0-t) [2, 4]	Cmax ([2]; oral FA decoction 15 g/kg, n=8)	Tmax ([2]; oral FA decoction 15 g/kg, n=8)	MRT last ([2]; oral FA decoction 15 g/kg, n=8)	half-life ([2]; oral FA decoction 15 g/kg, n=8)	AUC(0-t) [2, 5]	Cmax ([2]; oral FA decoction 30 g/kg, n=8)	Tmax ([2]; oral FA decoction 30 g/kg, n=8)	MRT last ([2]; oral FA decoction 30 g/kg, n=8)	half-life ([2]; oral FA decoction 30 g/kg, n=8)	AUC(0–t) elevation, 30 g/kg compared with the 15 g/kg group [2]	C max elevation, 30 g/kg compared with the 15 g/kg group [2]	Short-term stability, Mean ± SD [3, 6]	Freeze-thaw stability, Mean ± SD [3, 6]	other results
COc1ccc([C@@H]2CC(=O)c3c(O)cc(O)cc3O2)cc1O [Hesperetin, hesperetin]	0.19 mg/mL	0.19 mg/mL	0.18 mg/mL	0.18 mg/mL	0.19 mg/mL	0.18 mg/mL	508 ± 88 ng·h/mL	83.9 ± 14.2 ng/mL	1 ± 0.38 h	4.27 ± 0.27 h	8.05 ± 3.1 h	955 ± 227 ng·h/mL	174 ± 39 ng/mL	1.31 ± 0.26 h	4.15 ± 0.35 h	6.56 ± 3.35 h	1.88 fold	2.08 fold	234.18 ± 22.13 ng/mL	235.03 ± 19.71 ng/mL	Cmax ([2]; oral, 15 g/kg group): 83.9 ± 14.2 ng/mL; Cmax ([2]; oral, 30 g/kg group): 174 ± 39 ng/mL; Long-term stability, Mean ± SD [3, 6]: 235.66 ± 14.53 ng/mL; Short-term stability, Mean ± SD [3, 7]: 3.63 ± 0.87 ng/mL; Freeze-thaw stability, Mean ± SD [3, 7]: 3.52 ± 0.43 ng/mL; Long-term stability, Mean ± SD [3, 7]: 3.67 ± 0.57 ng/mL; Short-term stability, Mean ± SD [3, 8]: 27.88 ± 3.50 ng/mL; Freeze-thaw stability, Mean ± SD [3, 8]: 28.35 ± 4.03 ng/mL; Long-term stability, Mean ± SD [3, 8]: 28.28 ± 1.65 ng/mL
COc1ccc2ccc(=O)oc2c1C[C@@H](O)C(C)(C)O [Meranzin hydrate, meranzin hydrate]	0.34 mg/mL	0.36 mg/mL	0.33 mg/mL	0.34 mg/mL	0.35 mg/mL	0.34 mg/mL	1530 ± 252 ng·h/mL	505 ± 64.3 ng/mL	1 ± 0.27 h	2.77 ± 0.34 h	2.67 ± 0.81 h	7370 ± 887 ng·h/mL	1830 ± 221 ng/mL	1.25 ± 0.27 h	3.21 ± 0.22 h	2.23 ± 0.59 h	4.8 fold	3.62 fold	–	–	–
O=C1C[C@@H](c2ccc(O)cc2)Oc2cc(O)cc(O)c21 [Naringenin, naringenin]	0.27 mg/mL	0.26 mg/mL	0.26 mg/mL	0.26 mg/mL	0.26 mg/mL	0.25 mg/mL	3660 ± 861 ng·h/mL	694 ± 208 ng/mL	1.13 ± 0.35 h	4.06 ± 0.33 h	8.59 ± 9.25 h	11200 ± 1410 ng·h/mL	2580 ± 388 ng/mL	0.81 ± 0.26 h	3.89 ± 0.21 h	5.67 ± 2.9 h	3.05 fold	3.72 fold	3549.93 ± 455.39 ng/mL	3552.68 ± 409.74 ng/mL	Long-term stability, Mean ± SD [3, 6]: 3550.10 ± 450.62 ng/mL; Short-term stability, Mean ± SD [3, 7]: 13.03 ± 2.28 ng/mL; Freeze-thaw stability, Mean ± SD [3, 7]: 13.44 ± 4.79 ng/mL; Long-term stability, Mean ± SD [3, 7]: 13.32 ± 5.05 ng/mL; Short-term stability, Mean ± SD [3, 8]: 217.05 ± 22.66 ng/mL; Freeze-thaw stability, Mean ± SD [3, 8]: 219.51 ± 35.50 ng/mL; Long-term stability, Mean ± SD [3, 8]: 220.06 ± 34.22 ng/mL
